# Assay results published in patent publication US20240262826A1, “WILD TYPE KIT INHIBITORS” (Blueprint Medicines Corporation, priority 2022, published 2024).
# Key:
# [1] = biological target: human P-glycoprotein (P-gp, MDR1) (Homo sapiens (Human), UniProt P08183); test: MDCK-MDR1 cell monolayer drug transport assay (P-gp efflux ratio); assay type: in vitro ADME; settings: pH 7.4, MDCK-MDR1 cells, 1 uM concentration of compound, read-out: Pgp Efflux Ratio, 1 uM
# Procedure, shortened: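 P-gp substrate potential tested in MDCK-MDR1 monolayers on Transwell supports, cultured 4-8 days; monolayers with TEER <42 ohms·cm2 discarded. Transport run in HBSS (10 mM HEPES, pH 7.4) at 37° C with compound working solution at 1 μM.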
# [2] = biological target: T1, wild type c-kit (Homo sapiens (Human), UniProt P10721); test: MSD Phospho c-Kit (Tyr721) Assay Whole Cell Lysate Kit in SCF-stimulated M-07e cells (pKIT assay, marked *); assay type: cell-based; settings: Meso Scale Discovery (MSD) assay (values marked *)
# T1 sequence (P10721 26-976): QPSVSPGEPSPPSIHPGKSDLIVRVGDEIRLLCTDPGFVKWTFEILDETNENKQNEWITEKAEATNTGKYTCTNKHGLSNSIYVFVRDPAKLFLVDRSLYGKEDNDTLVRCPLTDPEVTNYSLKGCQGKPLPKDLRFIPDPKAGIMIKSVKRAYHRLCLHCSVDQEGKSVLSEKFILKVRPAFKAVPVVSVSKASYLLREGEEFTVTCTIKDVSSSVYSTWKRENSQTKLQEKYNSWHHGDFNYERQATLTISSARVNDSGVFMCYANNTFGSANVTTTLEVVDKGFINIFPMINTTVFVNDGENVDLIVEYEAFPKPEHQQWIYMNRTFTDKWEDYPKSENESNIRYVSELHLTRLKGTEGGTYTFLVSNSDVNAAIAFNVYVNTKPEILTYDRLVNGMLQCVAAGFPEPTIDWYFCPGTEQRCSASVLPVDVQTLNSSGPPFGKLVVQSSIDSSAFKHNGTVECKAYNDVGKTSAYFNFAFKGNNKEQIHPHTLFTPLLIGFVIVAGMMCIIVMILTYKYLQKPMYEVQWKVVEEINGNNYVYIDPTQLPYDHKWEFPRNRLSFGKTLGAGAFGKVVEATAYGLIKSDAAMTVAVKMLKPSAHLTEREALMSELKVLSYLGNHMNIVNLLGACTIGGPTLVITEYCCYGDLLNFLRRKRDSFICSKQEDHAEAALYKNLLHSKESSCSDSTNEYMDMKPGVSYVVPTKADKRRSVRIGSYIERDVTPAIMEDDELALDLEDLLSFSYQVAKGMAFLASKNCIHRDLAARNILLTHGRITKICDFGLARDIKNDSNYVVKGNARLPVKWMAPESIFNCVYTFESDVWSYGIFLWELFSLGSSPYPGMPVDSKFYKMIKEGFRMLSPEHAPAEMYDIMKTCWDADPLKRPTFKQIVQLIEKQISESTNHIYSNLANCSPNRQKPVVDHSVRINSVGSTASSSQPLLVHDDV
# Description: The ability of compounds of the disclosure (described herein as test compounds) to inhibit autophosphorylation of wild type c-kit was measures using either a PathScan phospho c-kit (Tyr719) sandwich ELISA (CST #7298) or a Phospho c-Kit (Tyr721) Assay Whole Cell Lysate Kit (MSD: 515DPD/catalog number K15119D-2).
# For the MSD Phospho c-Kit (Tyr721) Assay Whole Cell Lysate Kit: M-07e cells were maintained in Iscove's Modified Dulbecco's Medium (IMDM) media supplemented with 10% FBS, 5 ng/ml granulocyte-macrophage colony-stimulating factor (GM-CSF) and 100 units/mL Penicillin-Streptomycin, and grown in a 37° C., 5% CO2 in a humidified tissue culture incubator. M-07e cells were washed with phenol red-free, serum-free, GM-CSF-free IMDM and seeded in the same media at 100,000 cells well in a volume of 50 ul in a 96-well U-bottom plate. The cells were incubated for 4 hours, followed by the addition of test compound at a final DMSO concentration of 0.25% for 60 min at 37° C. to generate an 8-point dose concentration series of test compounds. The cells were stimulated with 50 ng/ml human SCF for 10 min at room temperature. Cells were then lysed by the addition of 16.5 ul of PerkinElmer 5× AlphaLISA Lysis Buffer supplemented with Cell Signaling Technologies protease/phosphatase inhibitor. Lysis was encouraged by shaking at 4° C. for 30 minutes.
# 25 ul of lysate was transferred to the MSD plate and the plate was shaken at 700 rpm at room temperature for one hour, followed by washing 3 times with Tris wash buffer. Next, 25 ul of detection antibody solution (diluted from 50× stock in antibody dilution buffer) was added. After shaking at 700 rpm at room temperature for one hour, the plate was washed 3 times with Tris wash buffer. The plate was then read on MSD Sector Imager immediately after 150 ul of reading buffer added to each well.
# An IC50 was calculated using a 4-parameter logistic nonlinear regression.
# [3] = biological target: Exon 11 KIT (Homo sapiens (Human), UniProt P10721, V560G); test: Exon 11 HMC1.1 autophosphorylation assay (Phospho-Y719 c-KIT ELISA); assay type: cell-based; settings: 90 minutes, read-out: IC50 HMC1.1 pKIT
# Exon 11 KIT, sequence (P10721 26-976 V560G): as the sequence (P10721 26-976) above, with V535G counted along it
# Description: Exon 11 HMC1.1 autophosphorylation assay: 50,000 HMC1.1 cells were incubated in 50 ul culture media (phenol-red free IMDM, no iron, no serum) in each well of a 96-well plate and serum starved 4 hours in a tissue culture incubator (5% CO2, 37° C.). An 8-point dose concentration series of compound were then added to the cells in a volume of 7 ul to each well. After 90 minutes, 14 ul of 5× AlphaLISA Lysis Buffer (Perkin Elmer) supplemented with a protease and phosphatase inhibitor cocktail (Cell Signaling Technologies) was added to each well and shaken at […] for 5 minutes at 4° C. Phospho-Y719 c-KIT ELISA kit from Cell Signaling Technology was used to assess levels of phospho KIT.
# [4] = biological target: T1, wild type c-kit; test: PathScan phospho c-kit (Tyr719) sandwich ELISA in SCF-stimulated M-07e cells (pKIT assay); assay type: cell-based; settings: ELISA assay (values not marked *)
# Procedure, shortened: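 Serum- and GM-CSF-starved M-07e cells (4 h) pretreated 60 min at 37 °C with an 8-point compound series in duplicate (0.25% DMSO), then stimulated with human SCF (500 ng/mL stock) 10 min at room temperature. Lysate c-kit Tyr719 phosphorylation quantified by sandwich ELISA with TMB read-out; IC50 from 4-parameter logistic fit.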
# human P-glycoprotein (P-gp, MDR1), sequence (P08183 whole entry): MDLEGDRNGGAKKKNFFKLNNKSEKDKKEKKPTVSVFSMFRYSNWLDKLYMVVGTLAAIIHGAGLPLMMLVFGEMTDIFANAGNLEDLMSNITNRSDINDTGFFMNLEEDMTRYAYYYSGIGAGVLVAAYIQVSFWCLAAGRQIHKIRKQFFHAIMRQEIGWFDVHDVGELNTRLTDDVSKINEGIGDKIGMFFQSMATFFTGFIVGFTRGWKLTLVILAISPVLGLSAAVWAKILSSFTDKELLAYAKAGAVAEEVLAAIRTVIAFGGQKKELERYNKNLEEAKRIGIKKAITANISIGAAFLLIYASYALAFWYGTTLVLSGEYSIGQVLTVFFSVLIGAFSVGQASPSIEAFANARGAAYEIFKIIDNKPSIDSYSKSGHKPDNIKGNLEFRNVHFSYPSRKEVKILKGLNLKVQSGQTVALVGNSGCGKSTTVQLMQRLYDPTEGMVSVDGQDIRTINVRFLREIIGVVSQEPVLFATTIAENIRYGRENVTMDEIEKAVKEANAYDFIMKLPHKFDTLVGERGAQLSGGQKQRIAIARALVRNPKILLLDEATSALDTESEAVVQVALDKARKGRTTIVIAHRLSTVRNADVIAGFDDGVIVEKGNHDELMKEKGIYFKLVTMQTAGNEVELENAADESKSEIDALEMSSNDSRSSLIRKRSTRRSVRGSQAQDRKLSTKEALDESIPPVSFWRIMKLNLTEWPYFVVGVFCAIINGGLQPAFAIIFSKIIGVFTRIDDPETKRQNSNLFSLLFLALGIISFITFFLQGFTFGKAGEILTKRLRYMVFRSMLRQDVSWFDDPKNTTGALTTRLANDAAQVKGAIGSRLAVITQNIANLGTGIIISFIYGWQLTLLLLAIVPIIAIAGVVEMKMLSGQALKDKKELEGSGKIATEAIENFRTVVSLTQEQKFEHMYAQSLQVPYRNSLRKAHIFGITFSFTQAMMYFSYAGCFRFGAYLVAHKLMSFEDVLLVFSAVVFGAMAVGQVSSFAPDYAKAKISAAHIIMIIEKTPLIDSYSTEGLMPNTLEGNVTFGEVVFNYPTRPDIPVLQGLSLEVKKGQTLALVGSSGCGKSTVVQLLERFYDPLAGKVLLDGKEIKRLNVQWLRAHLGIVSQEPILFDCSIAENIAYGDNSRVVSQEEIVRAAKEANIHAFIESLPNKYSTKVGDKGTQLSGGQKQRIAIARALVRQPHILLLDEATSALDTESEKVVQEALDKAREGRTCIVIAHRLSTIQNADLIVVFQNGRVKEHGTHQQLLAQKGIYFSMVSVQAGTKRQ
SMILES,"efflux ratio at 2 h, 1 µM [1]",IC50 [2] [nM],IC50 [3] [nM],IC50 [4] [nM]
"Cc1ccc(-c2nnn(C)n2)cc1NC(=O)c1cnn2ccc(-c3cn[nH]c3)cc12 [Example 43, N-(2-methyl-5-(2-methyl-2H-tetrazol-5-yl)phenyl)-5-(1H-pyrazol-4-yl)pyrazolo[1,5-a]pyridine-3-carboxamide]",11.9,5.4,–,–
"Cc1ccc(-c2nnn(C3CN(S(=O)(=O)CCO)C3)n2)cc1NC(=O)c1cnn2ccccc12 [Example 203, N-(5-(2-(1-((2-hydroxyethyl)sulfonyl)azetidin-3-yl)-2H-tetrazol-5-yl)-2-methylphenyl)pyrazolo[1,5-a]pyridine-3-carboxamide]",12.8,16.7,–,–
"COc1ccn2ncc(C(=O)Nc3cc(-c4nnn(C5CN(S(C)(=O)=O)C5)n4)ccc3C)c2c1 [Example 153, 5-methoxy-N-(2-methyl-5-(2-(1-(methylsulfonyl)azetidin-3-yl)-2H-tetrazol-5-yl)phenyl)pyrazolo[1,5-a]pyridine-3-carboxamide]",3.9,4.5,–,–
"Cc1ccc(-c2nnn(C3CC(F)(F)C3)n2)cc1NC(=O)c1cnn2ccc(-c3cn[nH]c3)cc12 [Example 198, N-(5-(2-(3,3-difluorocyclobutyl)-2H-tetrazol-5-yl)-2-methylphenyl)-5-(1H-pyrazol-4-yl)pyrazolo[1,5-a]pyridine-3-carboxamide]",16.6,1.7,–,–
"Cc1ccc(-c2nnn(C[C@H]3CC3(F)F)n2)cc1NC(=O)c1cnn2ccc(-c3cn[nH]c3)cc12 (single isomer, unassigned) [Example 55, (R)—N-(5-(2-((2,2-difluorocyclopropyl)methyl)-2H-tetrazol-5-yl)-2-methylphenyl)-5-(1H-pyrazol-4-yl)pyrazolo[1,5-a]pyridine-3-carboxamide or (S)—N-(5-(2-((2,2-difluorocyclopropyl)methyl)-2H-tetrazol-5-yl)-2-methylphenyl)-5-(1H-pyrazol-4-yl)pyrazolo[1,5-a]pyridine-3-carboxamide]",19.7,1.1,–,–
"Cc1ccc(-c2nnn(C[C@@H]3CC3(F)F)n2)cc1NC(=O)c1cnn2ccc(-c3cn[nH]c3)cc12 (single isomer, unassigned) [Example 56, (S)—N-(5-(2-((2,2-difluorocyclopropyl)methyl)-2H-tetrazol-5-yl)-2-methylphenyl)-5-(1H-pyrazol-4-yl)pyrazolo[1,5-a]pyridine-3-carboxamide or (R)—N-(5-(2-((2,2-difluorocyclopropyl)methyl)-2H-tetrazol-5-yl)-2-methylphenyl)-5-(1H-pyrazol-4-yl)pyrazolo[1,5-a]pyridine-3-carboxamide]",24.5,1.1,–,–
"COC(=O)N1CC(c2cnn(-c3ccc(C)c(NC(=O)c4cnn5ccc(N6CCN(C)CC6)cc45)c3)n2)C1 [Example 81, methyl 3-(2-(4-methyl-3-(5-(4-methylpiperazin-1-yl)pyrazolo[1,5-a]pyridine-3-carboxamido)phenyl)-2H-1,2,3-triazol-4-yl)azetidine-1-carboxylate]",–,–,6.4,19
"Cc1ccc(-c2nnn([C@H]3C[C@H](C(F)(F)F)C3)n2)cc1NC(=O)c1cnn2ccc(-c3cn[nH]c3)cc12 [Example 44, N-(2-methyl-5-(2-((1r,3r)-3-(trifluoromethyl)cyclobutyl)-2H-tetrazol-5-yl)phenyl)-5-(1H-pyrazol-4-yl)pyrazolo[1,5-a]pyridine-3-carboxamide or N-(2-methyl-5-(2-((1s,3s)-3-(trifluoromethyl)cyclobutyl)-2H-tetrazol-5-yl)phenyl)-5-(1H-pyrazol-4-yl)pyrazolo[1,5-a]pyridine-3-carboxamide]",15.9,1.5,–,–
"O=C(Nc1cc(-c2nnn(CCOCC(F)(F)F)n2)ccc1Cl)c1cnn2ccccc12 [Example 22, N-(2-chloro-5-(2-(2-(2,2,2-trifluoroethoxy)ethyl)-2H-tetrazol-5-yl)phenyl)pyrazolo[1,5-a]pyridine-3-carboxamide]",–,1.9,–,–
"Cc1ccc(-c2nnn(CCOCC(F)(F)F)n2)cc1NC(=O)c1cnn2ccccc12 [Example 158, N-(2-methyl-5-(2-(2-(2,2,2-trifluoroethoxy)ethyl)-2H-tetrazol-5-yl)phenyl)pyrazolo[1,5-a]pyridine-3-carboxamide]",–,5.7,–,–
"Cc1ccc(-c2nnn(C3CN(S(=O)(=O)C4(C)CC4)C3)n2)cc1NC(=O)c1cnn2ccccc12 [Example 181, N-(2-methyl-5-(2-(1-((1-methylcyclopropyl)sulfonyl)azetidin-3-yl)-2H-tetrazol-5-yl)phenyl)pyrazolo[1,5-a]pyridine-3-carboxamide]",3.1,6.4,–,–
"Cc1ccc(-c2nnn(CC3CCCCO3)n2)cc1NC(=O)c1cnn2ccccc12 (stereo not shown) [Example 34, N-(2-methyl-5-(2-((tetrahydro-2H-pyran-2-yl)methyl)-2H-tetrazol-5-yl)phenyl)pyrazolo[1,5-a]pyridine-3-carboxamide]",–,9.5,–,–
"Cc1ccc(-c2nnn(C3CC(F)C3)n2)cc1NC(=O)c1cnn2ccccc12 (stereo not shown) [Example 32, N-(5-(2-(3-fluorocyclobutyl)-2H-tetrazol-5-yl)-2-methylphenyl)pyrazolo[1,5-a]pyridine-3-carboxamide]",–,2.5,–,–
"Cc1ccc(-c2nnn([C@H](C)C3CC3)n2)cc1NC(=O)c1cnn2ccccc12 (single isomer, unassigned) [Example 37, (R)-N-(5-(2-(1-cyclopropylethyl)-2H-tetrazol-5-yl)-2-methylphenyl)pyrazolo[1,5-a]pyridine-3-carboxamide or (S)-N-(5-(2-(1-cyclopropylethyl)-2H-tetrazol-5-yl)-2-methylphenyl)pyrazolo[1,5-a]pyridine-3-carboxamide]",–,6.2,–,–
"Cc1ccc(-c2nnn(C3CC(F)(F)C3)n2)cc1NC(=O)c1cnn2ccc(-c3cnn(CCO)c3)cc12 [Example 46, N-(5-(2-(3,3-difluorocyclobutyl)-2H-tetrazol-5-yl)-2-methylphenyl)-5-(1-(2-hydroxyethyl)-1H-pyrazol-4-yl)pyrazolo[1,5-a]pyridine-3-carboxamide]",–,0.6,–,–
"Cc1ccc(-c2nnn(CC[C@@](C)(O)C(F)(F)F)n2)cc1NC(=O)c1cnn2ccccc12 (single isomer, unassigned) [Example 41, (R)-N-(2-methyl-5-(2-(4,4,4-trifluoro-3-hydroxy-3-methylbutyl)-2H-tetrazol-5-yl)phenyl)pyrazolo[1,5-a]pyridine-3-carboxamide or (S)-N-(2-methyl-5-(2-(4,4,4-trifluoro-3-hydroxy-3-methylbutyl)-2H-tetrazol-5-yl)phenyl)pyrazolo[1,5-a]pyridine-3-carboxamide]",–,1.8,–,–
COC(=O)N1CC(c2cnn(-c3ccc(Cl)c(NC(=O)c4cnn5ccccc45)c3)n2)C1 [Example 193],–,5.2,–,–
"Cc1ccc(-c2nnn(C3CN(S(C)(=O)=O)C3)n2)cc1NC(=O)c1cnn2ccc(C3CC3)cc12 [Example 50, 5-cyclopropyl-N-(2-methyl-5-(2-(1-(methylsulfonyl)azetidin-3-yl)-2H-tetrazol-5-yl)phenyl)pyrazolo[1,5-a]pyridine-3-carboxamide]",6.5,8,–,–
